# Laboratory results taken from ChEMBL document CHEMBL3739320, “Synthesis and biological evaluation of novel semi-conservative monocarbonyl analogs of curcumin as anti-inflammatory agents” (Medchemcomm, 2015).
# Active and inactive are the calls of the source. The rule behind the calls is not given here.
# Experiments:
# [1] = Cytotoxicity against human HL-7702 cells at 10 uM after 24 hrs by MTT assay; format: cell-based; conditions: l02, 24 h
# RAW264.7 [2] = test: Antiinflammatory activity in LPS-induced mouse RAW264.7 macrophages assessed as suppression of TNF-alpha release pretreated at 10 uM for 2 hrs followed by stimulation with LPS for 22 hrs by ELISA; format: functional, cell-based
# RAW264.7 [3] = test: Antiinflammatory activity in LPS-induced mouse RAW264.7 macrophages assessed as suppression of IL-6 release pretreated for 2 hrs followed by stimulation with LPS for 22 hrs by ELISA; format: functional, cell-based
# RAW264.7 [4] = test: Antiinflammatory activity in LPS-induced mouse RAW264.7 macrophages assessed as suppression of IL-6 mRNA level pretreated at 10 uM for 2 hrs followed by stimulation with LPS for 6 hrs by RT-qPCR analysis; format: functional, cell-based
# RAW264.7 [5] = test: Antiinflammatory activity in LPS-induced mouse RAW264.7 macrophages assessed as suppression of TNF-alpha release pretreated for 2 hrs followed by stimulation with LPS for 22 hrs by ELISA; format: functional, cell-based
# RAW264.7 [6] = test: Antiinflammatory activity in LPS-induced mouse RAW264.7 macrophages assessed as suppression of TNF-alpha mRNA level pretreated at 10 uM for 2 hrs followed by stimulation with LPS for 6 hrs by RT-qPCR analysis; format: functional, cell-based
# [7] = tested on: Peritoneal macrophage cell; test: Antiinflammatory activity in LPS-induced ICR mouse peritoneal macrophages assessed as suppression of IL-6 release pretreated for 2 hrs followed by stimulation with LPS for 22 hrs by ELISA; format: functional, cell-based
# [8] = tested on: Peritoneal macrophage cell; test: Antiinflammatory activity in LPS-induced ICR mouse peritoneal macrophages assessed as suppression of TNF-alpha release pretreated for 2 hrs followed by stimulation with LPS for 22 hrs by ELISA; format: functional, cell-based
# RAW264.7 [9] = test: Antiinflammatory activity in LPS-induced mouse RAW264.7 macrophages assessed as suppression of COX-2 mRNA level pretreated at 10 uM for 2 hrs followed by stimulation with LPS for 6 hrs by RT-qPCR analysis; format: functional, cell-based
# RAW264.7 [10] = test: Antiinflammatory activity in LPS-induced mouse RAW264.7 macrophages assessed as suppression of IL-1beta mRNA level pretreated at 10 uM for 2 hrs followed by stimulation with LPS for 6 hrs by RT-qPCR analysis; format: functional, cell-based
# RAW264.7 [11] = test: Inhibition of NFkappaB in LPS-induced mouse RAW264.7 cells assessed as suppression of binding of NF-kappabeta with DNA in nucleus pretreated for 2 hrs followed by stimulation with LPS for 1 hr by EMSA; format: cell-based
# RAW264.7 [12] = test: Antiinflammatory activity in LPS-induced mouse RAW264.7 macrophages assessed as suppression of IL-1beta mRNA level pretreated for 2 hrs followed by stimulation with LPS for 6 hrs by RT-qPCR analysis; format: functional, cell-based
# Mus musculus = test: Antiinflammatory activity in LPS-induced C57BL/6 mouse assessed as survival rate pretreated at 10 mg/kg, iv for 15 mins followed by LPS stimulation measured for 7 days; format: functional; conditions: C57BL/6, iv
# [13] = target: Transcription factor p65 (Mus musculus) (UniProt Q04207); test: Inhibition of NFkappaB in LPS-induced mouse RAW264.7 cells assessed as decrease in P65 in nucleus pretreated for 2 hrs followed by stimulation with LPS for 1 hr by Western blot analysis; format: cell-based
# RAW264.7 [14] = test: Antiinflammatory activity in LPS-induced mouse RAW264.7 macrophages assessed as suppression of TNF-alpha mRNA level pretreated for 2 hrs followed by stimulation with LPS for 6 hrs by RT-qPCR analysis; format: functional, cell-based
# RAW264.7 [15] = test: Antiinflammatory activity in LPS-induced mouse RAW264.7 macrophages assessed as suppression of COX-2 mRNA level pretreated for 2 hrs followed by stimulation with LPS for 6 hrs by RT-qPCR analysis; format: functional, cell-based
# [16] = Stability in phosphate buffer at pH 7.4 by UV-visible absorption analysis; format: physicochemical
# RAW264.7 [17] = test: Antiinflammatory activity in LPS-induced mouse RAW264.7 macrophages assessed as suppression of IL-6 mRNA level pretreated for 2 hrs followed by stimulation with LPS for 6 hrs by RT-qPCR analysis; format: functional, cell-based
# [18] = target: Transcription factor p65 (Mus musculus) (UniProt Q04207); test: Inhibition of NFkappaB in LPS-induced mouse RAW264.7 cells assessed as increase in P65 in cytosol pretreated for 2 hrs followed by stimulation with LPS for 1 hr by Western blot analysis; format: cell-based
# RAW264.7 [19] = test: Inhibition of LPS-induced IkappaB-alpha degradation in LPS-induced mouse RAW264.7 cells pretreated for 2 hrs followed by stimulation with LPS for 1 hr by Western blot analysis; format: cell-based
# Sequence of Transcription factor p65 (Mus musculus) (Q04207 whole entry): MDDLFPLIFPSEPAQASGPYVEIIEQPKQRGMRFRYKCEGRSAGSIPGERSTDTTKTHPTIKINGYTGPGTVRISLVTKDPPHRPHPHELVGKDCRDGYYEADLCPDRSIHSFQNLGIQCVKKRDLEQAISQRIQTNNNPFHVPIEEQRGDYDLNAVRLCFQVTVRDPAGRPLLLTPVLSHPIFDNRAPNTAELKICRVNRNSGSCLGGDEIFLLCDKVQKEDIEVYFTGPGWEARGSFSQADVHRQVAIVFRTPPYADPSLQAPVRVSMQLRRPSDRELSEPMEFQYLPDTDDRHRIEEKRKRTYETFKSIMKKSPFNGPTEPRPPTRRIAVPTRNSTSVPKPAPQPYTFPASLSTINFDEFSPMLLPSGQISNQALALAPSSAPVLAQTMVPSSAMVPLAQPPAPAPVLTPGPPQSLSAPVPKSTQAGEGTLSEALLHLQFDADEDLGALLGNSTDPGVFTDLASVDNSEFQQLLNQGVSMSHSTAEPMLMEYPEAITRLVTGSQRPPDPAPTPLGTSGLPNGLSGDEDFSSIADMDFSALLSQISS
smiles,measurement,setting,value
COc1cc(/C=C/C(=O)/C=C/c2cccc(C(F)(F)F)c2F)ccc1O,Activity,[1],Non-toxic
same,inhibition,RAW264.7 [2],Active
COc1cc(/C=C/C(=O)/C=C/c2cc([N+](=O)[O-])ccc2F)ccc1O,Activity,[1],Non-toxic
COc1cc(/C=C/C(=O)/C=C/c2ccc([N+](=O)[O-])cc2[N+](=O)[O-])ccc1O,Activity,[1],Non-toxic
COc1cc(/C=C/C(=O)/C=C/c2ccc(O)cc2Br)ccc1O,Activity,[1],Non-toxic
same,inhibition,RAW264.7 [2],Active
COc1cc(/C=C/C(=O)/C=C/c2ccc(OC(C)=O)cc2)ccc1O,Activity,[1],Non-toxic
COc1ccc(/C=C/C(=O)/C=C/c2ccc(O)c(OC)c2)c(F)c1,inhibition,RAW264.7 [3],Dose-dependent effect
same,inhibition,RAW264.7 [4],Active
same,Activity,[1],Non-toxic
same,inhibition,RAW264.7 [5],Dose-dependent effect
same,inhibition,RAW264.7 [2],Active
same,inhibition,RAW264.7 [6],Active
same,inhibition,[7],Dose-dependent effect
same,inhibition,[8],Dose-dependent effect
same,inhibition,RAW264.7 [9],Active
same,inhibition,RAW264.7 [10],Active
COc1cc(/C=C/C(=O)/C=C/c2ccccc2C(F)(F)F)ccc1O,Activity,[1],Non-toxic
same,inhibition,RAW264.7 [2],Active
COc1ccc(Br)c(/C=C/C(=O)/C=C/c2ccc(O)c(OC)c2)c1,Activity,[1],Non-toxic
same,inhibition,RAW264.7 [2],Active
COc1cc(/C=C/C(=O)/C=C/c2cc(F)ccc2F)ccc1O,Activity,[1],Non-toxic
same,inhibition,RAW264.7 [2],Active
COc1cc(/C=C/C(=O)/C=C/c2c(F)cccc2Br)ccc1O,Activity,[1],Non-toxic
COc1cc(/C=C/C(=O)/C=C/c2ccc(Br)cc2)ccc1O,Activity,[1],Non-toxic
COc1cc(/C=C/C(=O)/C=C/c2cccc(Cl)c2Cl)ccc1O,Activity,[1],Non-toxic
same,inhibition,RAW264.7 [2],Active
COc1cc(/C=C/C(=O)/C=C/c2ccc(C(F)(F)F)cc2C(F)(F)F)ccc1O,Activity,[1],Non-toxic
same,inhibition,RAW264.7 [2],Active
COc1cc(/C=C/C(=O)/C=C/c2ccc(Br)c(F)c2)ccc1O,Activity,[1],Non-toxic
COc1cc(/C=C/C(=O)/C=C/c2c(C)cc(C)cc2C)ccc1O,inhibition,RAW264.7 [3],Dose-dependent effect
same,inhibition,RAW264.7 [4],Active
same,Activity,[1],Non-toxic
same,inhibition,RAW264.7 [5],Dose-dependent effect
same,inhibition,RAW264.7 [2],Active
same,inhibition,RAW264.7 [6],Active
same,inhibition,[7],Dose-dependent effect
same,inhibition,[8],Dose-dependent effect
same,inhibition,RAW264.7 [9],Active
same,inhibition,RAW264.7 [10],Active
COc1cc(/C=C/C(=O)/C=C/c2cc(F)ccc2Br)ccc1O,Activity,[1],Non-toxic
same,inhibition,RAW264.7 [2],Active
COc1cc(/C=C/C(=O)/C=C/c2cccc(O)c2)ccc1O,Activity,[1],Non-toxic
same,inhibition,RAW264.7 [2],Active
COc1cc(/C=C/C(=O)/C=C/c2cc3c(cc2Br)OCO3)ccc1O,inhibition,RAW264.7 [3],Dose-dependent effect
same,inhibition,RAW264.7 [4],Active
same,Activity,[1],Non-toxic
same,inhibition,RAW264.7 [5],Dose-dependent effect
same,inhibition,RAW264.7 [2],Active
same,inhibition,RAW264.7 [6],Active
same,inhibition,[7],Dose-dependent effect
same,inhibition,[8],Dose-dependent effect
same,inhibition,RAW264.7 [9],Active
same,inhibition,RAW264.7 [10],Active
COc1cc(/C=C/C(=O)/C=C/c2ccc(OC)c(Br)c2)ccc1O,inhibition,RAW264.7 [3],Dose-dependent effect
same,inhibition,RAW264.7 [4],Active
same,Activity,[1],Non-toxic
same,inhibition,RAW264.7 [5],Dose-dependent effect
same,inhibition,RAW264.7 [2],Active
same,inhibition,RAW264.7 [6],Active
same,inhibition,[7],Dose-dependent effect
same,inhibition,[8],Dose-dependent effect
same,inhibition,RAW264.7 [9],Active
same,inhibition,RAW264.7 [10],Active
COc1cc(/C=C/C(=O)/C=C/c2cccc(Br)c2)ccc1O,Activity,[1],Non-toxic
same,inhibition,RAW264.7 [2],Active
COc1cc(/C=C/C(=O)/C=C/c2ccccc2[N+](=O)[O-])ccc1O,inhibition,RAW264.7 [11],Active
same,inhibition,RAW264.7 [3],Dose-dependent effect
same,inhibition,RAW264.7 [12],Dose-dependent effect
same,survival at 10 mg/kg,Mus musculus,55%
same,Activity,[13],Active
same,inhibition,RAW264.7 [4],Active
same,inhibition,RAW264.7 [14],Dose-dependent effect
same,Activity,[1],Non-toxic
same,inhibition,RAW264.7 [5],Dose-dependent effect
same,inhibition,RAW264.7 [15],Dose-dependent effect
same,inhibition,RAW264.7 [2],Active
same,Stability,[16],Stable
same,inhibition,RAW264.7 [6],Active
same,inhibition,RAW264.7 [17],Dose-dependent effect
same,Activity,[18],Active
same,inhibition,[7],Dose-dependent effect
same,inhibition,[8],Dose-dependent effect
same,Activity,RAW264.7 [19],Dose-dependent effect
same,inhibition,RAW264.7 [9],Active
same,inhibition,RAW264.7 [10],Active
COc1cc(/C=C/C(=O)/C=C/c2ccc(OC)c(OC)c2OC)ccc1O,inhibition,RAW264.7 [3],Dose-dependent effect
same,inhibition,RAW264.7 [4],Active
same,Activity,[1],Non-toxic
same,inhibition,RAW264.7 [5],Dose-dependent effect
same,inhibition,RAW264.7 [2],Active
same,Stability,[16],Stable
same,inhibition,RAW264.7 [6],Active
same,inhibition,[7],Dose-dependent effect
same,inhibition,[8],Dose-dependent effect
same,inhibition,RAW264.7 [9],Active
same,inhibition,RAW264.7 [10],Active
COc1cc(/C=C/C(=O)/C=C/c2ccc3c(c2)CCN3)ccc1O,Activity,[1],Non-toxic
COc1cc(/C=C/C(=O)CC(=O)/C=C/c2ccc(O)c(OC)c2)ccc1O [CURCUMIN],Activity,[1],Non-toxic
same,inhibition,RAW264.7 [2],Active
COc1cc(/C=C/C(=O)/C=C/c2ccc(C(C)C)cc2)ccc1O,Activity,[1],Non-toxic
same,inhibition,RAW264.7 [2],Active
COc1cc(/C=C/C(=O)/C=C/c2ccc3ccccc3c2)ccc1O,Activity,[1],Non-toxic
COc1cc(/C=C/C(=O)/C=C/c2ccc(C(F)(F)F)cc2)ccc1O,Activity,[1],Non-toxic
same,inhibition,RAW264.7 [2],Active
COc1cc(/C=C/C(=O)/C=C/c2ccccc2Br)ccc1O,Activity,[1],Non-toxic
COc1cc(/C=C/C(=O)/C=C/c2cc(Br)ccc2Br)ccc1O,Activity,[1],Non-toxic
same,inhibition,RAW264.7 [2],Active
COc1ccc(F)c(/C=C/C(=O)/C=C/c2ccc(O)c(OC)c2)c1,Activity,[1],Non-toxic
C=CCOc1ccc(/C=C/C(=O)/C=C/c2ccc(O)c(OC)c2)cc1,Activity,[1],Non-toxic
COc1cc(/C=C/C(=O)/C=C/c2ccccc2Cl)ccc1O,Activity,[1],Non-toxic
